Read-outs that look alike come from different tables or passages of the source.
Legend:
TNF-α: TNFR2 = target: T1, TNF-α: TNFR2 (Homo sapiens, UniProt P01375); test: TNFR2: TNF-α [Biotinylated] inhibitor screening assay; format: binding; conditions: in vitro kit, mean ± SD
T1 construct: purchased BPS bioscience
Excerpt: In vitro TNF-α [Biotinylated] inhibition assay. TNFR2: TNF-α [Biotinylated] inhibitor screening assay kit (BPS bioscience, Cornerstone Court W, Ste B San Diego, CA 92121) was used to screen for the in vitro inhibition of TNF-α binding to tumor necrosis factor receptor 2 (TNFR2) following the manufacturer’s protocol.

[1] = target: ACE-2: SARS-CoV-2 Spike (RBD) (Homo sapiens, UniProt Q9BYF1); test: ACE-2: Spike RBD (SARS-CoV-2) inhibitor screening colorimetric assay; format: binding, human; SARS-CoV-2; conditions: in vitro colorimetric kit; mean ± SD; read-out: IC50, ACE2 spike RBD (SARS-CoV-2) inhibitory effect
Chain of ACE-2: SARS-CoV-2 Spike (RBD) (Q9BYF1 18-740): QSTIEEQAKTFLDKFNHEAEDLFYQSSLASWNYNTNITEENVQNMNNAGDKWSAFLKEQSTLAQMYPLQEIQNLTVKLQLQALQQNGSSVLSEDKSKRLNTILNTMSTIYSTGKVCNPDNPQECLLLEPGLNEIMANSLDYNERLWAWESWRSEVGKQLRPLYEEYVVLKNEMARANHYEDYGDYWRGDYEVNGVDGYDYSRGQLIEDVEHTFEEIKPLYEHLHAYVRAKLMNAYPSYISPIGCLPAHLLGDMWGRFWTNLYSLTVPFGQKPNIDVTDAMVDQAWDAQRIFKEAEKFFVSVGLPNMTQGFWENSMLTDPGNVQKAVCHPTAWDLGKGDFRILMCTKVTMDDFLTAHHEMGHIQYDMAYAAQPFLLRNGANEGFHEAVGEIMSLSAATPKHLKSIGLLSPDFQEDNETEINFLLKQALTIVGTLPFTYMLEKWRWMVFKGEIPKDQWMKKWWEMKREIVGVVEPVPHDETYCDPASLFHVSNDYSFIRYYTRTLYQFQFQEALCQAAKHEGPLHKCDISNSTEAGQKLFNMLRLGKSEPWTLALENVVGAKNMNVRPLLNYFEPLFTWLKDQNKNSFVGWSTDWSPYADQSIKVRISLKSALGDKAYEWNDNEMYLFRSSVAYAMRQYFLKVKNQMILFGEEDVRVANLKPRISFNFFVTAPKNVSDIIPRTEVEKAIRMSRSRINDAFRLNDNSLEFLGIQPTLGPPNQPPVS

[2] = system: TNF-α mRNA in LPS-stimulated RAW 264.7 macrophages; test: TNF-α gene expression (qRT-PCR) in LPS-induced RAW 264.7 cells; format: cell-based; conditions: LPS (1 μg/mL)-stimulated RAW 264.7, sub IC50 concentration, relative to LPS control, referenced to Actb
Description: (§1) Evaluation of pro-inflammatory cytokines (TNF- α and IL-6) using LPS-induced RAW 264.7 cells. RAW 264.7 macrophage cells were procured from the American Type Culture Collection (Manassas, VA, USA) and grown as previously described. In vitro Toxicology Assay Kit, MTT Based (Sigma-Aldrich, Saint Louis, Missouri, USA) was employed to establish cell viability at concentrations (1–250 μM). Treatment of RAW 264.7 cells and determination of the inhibitory effect of the active compounds at sub IC50 values on TNF- α and IL-6 gene expression in RAW264.7 cells were performed as mentioned before using LPs treated cells as control.

[3] = system: ACE-2 protein expression in HLMEC; test: Western blot of ACE-2 protein expression in HLMEC; format: cell-based, human; conditions: 25 μM, 48 h, western blot vs untreated cells
Description: HLMEC cells were seeded, cultured, and incubated with compounds 1–4 for 48h. RIPA buffer (Cell Signaling, Danvers, MA) was employed to obtain the entire-cell protein lysates. Bradford method was used to determine the concentration of protein. Western blot assay was done as previously stated using untreated cells as control. Anti-ACE-2 antibody [EPR24705-45] ab272500 (Abcam, Cambridge, UK) was used.
(§2) An experimental model of HLMEC was applied to study the effects of the endophytic compounds 1–4 on ACE-2 protein expression. Preceding this analysis, the cytotoxic effect of compounds 1–4 was determined on HLMEC using an MTT assay. HLMEC were treated with different dilutions of the test samples (0.39–100 μM) for 48 h. Compounds 1–4 being nontoxic (IC50>100 μM, Table 6).

[4] = system: Human lung microvascular endothelial cells (HLMEC); test: MTT cell viability assay in HLMEC; format: cell-based; conditions: 48 h, read-out: IC50, viability of HLMEC
Description: Human lung microvascular endothelial cells (HLMEC) were acquired from Lonza (Hayward, CA, USA). The cells were seeded in an endothelial cell growth medium (EGM-2 MV) (Lonza, Hayward, CA, USA) at 37°C and 5% CO2. Then, at 5 to 7 passages, the cells were plated in 100 μL/well EGM-2 MV medium in collagen-covered 96-well plates. The cells were grown for 3–5 days to reach the confluent layer. Cell viability was valued by the MTT Cell Growth Assay Kit (Sigma-Aldrich, Steinheim, Germany) using untreated cells as control.
as §2

[5] = system: IL-6 mRNA in LPS-stimulated RAW 264.7 macrophages; test: IL-6 gene expression (qRT-PCR) in LPS-induced RAW 264.7 cells; format: cell-based; conditions: LPS (1 μg/mL)-stimulated RAW 264.7, sub IC50 concentration, relative to LPS control, referenced to Actb
Description: as §1

[6] = Solubility observation of the isolated compound; format: physicochemical; conditions: observation on the isolated oil
Excerpt: In addition, there were complex multiplet overlapping signals for several hydrogen protons characteristic for different methylene groups laying in the same chemical environment (H- 5’/5’’, H-6’/6’’, H-11’/11’’ and 12’/12’’). […] In addition to two carbonyl carbons, one of which (C-1’/1’’ δC 167.7) is upfield due to its attachment to the aromatic ring while the other is downfield (C-9’/9’’, δC 174.0). The downfield shift of the two-methylene groups 3’/3’’ (δC, 68.2) and 7’/7’’ (δC 66.7) confirm their attachment to O-C = O. Moreover, the structure contained only one methine group at δC 38.7 (CH- 4’/4’’) and two methyl groups CH3-13’/13’’ and 14’/14’’ at δC 10.9 and 14.0, respectively. Furthermore, there were another five CH2 groups at δC 30.4, 23.7, 34.4, 25.0, and 29.1 for C-5’, 6’, 10’,11’, and 12’, respectively. H-H-COSY (Fig 1) established the correlation between the aromatic ring’s protons and that between the side chains’ protons. Additionally, HMBC data (Fig 1) confirmed the substitution of the aromatic ring through the correlation from H-2/5 ([…]) to C-3/4 (δC 130.9) and that between H-3/4 (δC 7.54) and C-2/5 (δC 128.8). The connectivity of the side chain to the aromatic ring at C-1 and C-6 was established through the correlation from H-2/5 (δH 7.72) to C-1`/1” (δC 167.7). […]

[7] = read-out: IC50, TNF-α: TNFR2 inhibitory effect

T1 sequence (P01375 77-233 limits assumed): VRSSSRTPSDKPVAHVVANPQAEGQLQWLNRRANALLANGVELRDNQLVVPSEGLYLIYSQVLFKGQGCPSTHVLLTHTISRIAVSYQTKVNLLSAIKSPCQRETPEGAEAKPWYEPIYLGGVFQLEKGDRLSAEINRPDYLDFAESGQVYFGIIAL

| SMILES | IC50 (TNF-α: TNFR2; IC50, TNF-α: TNFR2 inhibitory effect) [µM] | IC50 [1] [µM] | TNF-α mRNA expression fold change [2] | ACE2% inhibition (ACE2 protein expression) [3] [%] | IC50 [4] [µM] | IL-6 mRNA expression fold change [5] | IC50 (TNF-α: TNFR2; [7]) [µM] | solubility in water [6] |
| --- | --- | --- | --- | --- | --- | --- | --- | --- |
| COc1cc(O)c2c(=O)oc3cc(O)cc(C)c3c2c1 [Compound 4, alternariol-5-O-methyl ether] | 4.97 ± 0.28 | 11.7 ± 0.34 | 0.28 ± 0.02 | 50.85 ± 4.34 | > 100 | 0.14 ± 0.01 |  |  |
| COc1cc(O)c2c(=O)oc3c(c2c1)C(C)CC3=O (centres unmarked) [Compound 3, 1-deoxyrubralactone] |  | 12.5 ± 0.46 |  | 29.91 ± 4.26 | > 100 |  |  |  |
| CC1CCC2C(C1)c1ccccc1C1CCCCC(C)N12 (centres unmarked) [Compound 1, altenuline] |  | 15.5 ± 0.45 |  | 49.65 ± 3.06 | > 100 |  | 8.7 ± 0.34 |  |
| CCCCC(=O)OCCCC(C)COC(=O)c1ccccc1C(=O)OCC(C)CCCOC(=O)CCCC (centres unmarked) [Compound 2, phthalic acid bis (7’/7’’ pentyloxy) isohexyl ester] |  | 10.4 ± 0.25 | 0.45 ± 0.07 | 70.51± 4.80 | > 100 | 0.30 ± 0.02 | 5.4 ± 0.33 | insoluble in water |

Reference: paper PMC11760621, “Secondary metabolites of Alternaria alternate appraisal of their SARS-CoV-2 inhibitory and anti-inflammatory potentials” (PLOS ONE, 2025)
